Experimental data published in ChEMBL document CHEMBL4507273 (2021).

Assays:
D(1A) dopamine receptor = D(1A) dopamine receptor (Homo sapiens, UniProt P21728); test: GPCRScan assay: inhibition of D1; parameters: radioligand conc. used [nm] 0.6 – 1.3, parental cells HEKT
[1] = tested on: Tyrosine-protein kinase ABL1 (Homo sapiens), P00519 [F317L]; settings: Compound concentration 1000.0 nM
[2] = target: Activin receptor type-1 (Homo sapiens) (UniProt Q04771); settings: Compound concentration 1000.0 nM
[3] = target: Ankyrin repeat and protein kinase domain-containing protein 1 (Homo sapiens) (UniProt Q8NFD2); settings: Compound concentration 1000.0 nM
[4] = target: Aurora kinase B (Homo sapiens) (UniProt Q96GD4); settings: Compound concentration 1000.0 nM
[5] = target: Tyrosine-protein kinase receptor UFO (Homo sapiens) (UniProt P30530); settings: Compound concentration 1000.0 nM
[6] = target: Serine/threonine-protein kinase BRSK1 (Homo sapiens) (UniProt Q8TDC3); settings: Compound concentration 1000.0 nM
[7] = target: Cyclin-dependent kinase 4 (Homo sapiens) (UniProt P11802); settings: Compound concentration 1000.0 nM
[8] = target: Cyclin-dependent kinase-like 2 (Homo sapiens) (UniProt Q92772); settings: Compound concentration 1000.0 nM
[9] = target: Cyclin-dependent kinase-like 5 (Homo sapiens) (UniProt O76039); settings: Compound concentration 1000.0 nM
[10] = target: Macrophage colony-stimulating factor 1 receptor (Homo sapiens) (UniProt P07333); settings: Compound concentration 1000.0 nM
[11] = target: Casein kinase I isoform epsilon (Homo sapiens) (UniProt P49674); settings: Compound concentration 1000.0 nM
[12] = target: Discoidin domain-containing receptor 2 (Homo sapiens) (UniProt Q16832); settings: Compound concentration 1000.0 nM
[13] = target: Receptor-type tyrosine-protein kinase FLT3 (Homo sapiens) (UniProt P36888); settings: Compound concentration 1000.0 nM
[14] = target: Vascular endothelial growth factor receptor 3 (Homo sapiens) (UniProt P35916); settings: Compound concentration 1000.0 nM
[15] = target: Tyrosine-protein kinase JAK1 (Homo sapiens) (UniProt P23458); settings: Compound concentration 1000.0 nM
[16] = tested on: Mast/stem cell growth factor receptor Kit (Homo sapiens), P10721 [V559D,T670I]; settings: Compound concentration 1000.0 nM
[17] = target: Leukocyte tyrosine kinase receptor (Homo sapiens) (UniProt P29376); settings: Compound concentration 1000.0 nM
[18] = target: Microtubule-associated serine/threonine-protein kinase 1 (Homo sapiens) (UniProt Q9Y2H9); settings: Compound concentration 1000.0 nM
[19] = target: MAP kinase-interacting serine/threonine-protein kinase 2 (Homo sapiens) (UniProt Q9HBH9); settings: Compound concentration 1000.0 nM
[20] = target: Mitogen-activated protein kinase kinase kinase 10 (Homo sapiens) (UniProt Q02779); settings: Compound concentration 1000.0 nM
[21] = target: Serine/threonine-protein kinase mTOR (Homo sapiens) (UniProt P42345); settings: Compound concentration 1000.0 nM
[22] = target: Serine/threonine-protein kinase 38-like (Homo sapiens) (UniProt Q9Y2H1); settings: Compound concentration 1000.0 nM
[23] = target: Serine/threonine-protein kinase Nek6 (Homo sapiens) (UniProt Q9HC98); settings: Compound concentration 1000.0 nM
[24] = target: Platelet-derived growth factor receptor alpha (Homo sapiens) (UniProt P16234); settings: Compound concentration 1000.0 nM
[25] = target: Phosphatidylinositol 4-phosphate 3-kinase C2 domain-containing subunit beta (Homo sapiens) (UniProt O00750); settings: Compound concentration 1000.0 nM
[26] = tested on: Phosphatidylinositol 4,5-bisphosphate 3-kinase catalytic subunit alpha isoform (Homo sapiens), P42336 [E542K]; settings: Compound concentration 1000.0 nM
[27] = target: cGMP-dependent protein kinase 2 (Homo sapiens) (UniProt Q13237); settings: Compound concentration 1000.0 nM
[28] = target: Serine/threonine-protein kinase RIO1 (Homo sapiens) (UniProt Q9BRS2); settings: Compound concentration 1000.0 nM
[29] = target: Rho-associated protein kinase 1 (Homo sapiens) (UniProt Q13464); settings: Compound concentration 1000.0 nM
[30] = target: Proto-oncogene tyrosine-protein kinase ROS (Homo sapiens) (UniProt P08922); settings: Compound concentration 1000.0 nM
[31] = target: Ribosomal protein S6 kinase alpha-5 (Homo sapiens) (UniProt O75582); settings: Compound concentration 1000.0 nM
[32] = target: Ribosomal protein S6 kinase alpha-2 (Homo sapiens) (UniProt Q15349); settings: Compound concentration 1000.0 nM
[33] = target: Ribosomal protein S6 kinase beta-1 (Homo sapiens) (UniProt P23443); settings: Compound concentration 1000.0 nM
[34] = target: Serine/threonine-protein kinase tousled-like 1 (Homo sapiens) (UniProt Q9UKI8); settings: Compound concentration 1000.0 nM
[35] = target: Activated CDC42 kinase 1 (Homo sapiens) (UniProt Q07912); settings: Compound concentration 1000.0 nM
[36] = target: T1, Testis-specific serine/threonine-protein kinase 1 (Homo sapiens) (UniProt Q9BXA7); settings: Compound concentration 1000.0 nM
T1 sequence (whole entry): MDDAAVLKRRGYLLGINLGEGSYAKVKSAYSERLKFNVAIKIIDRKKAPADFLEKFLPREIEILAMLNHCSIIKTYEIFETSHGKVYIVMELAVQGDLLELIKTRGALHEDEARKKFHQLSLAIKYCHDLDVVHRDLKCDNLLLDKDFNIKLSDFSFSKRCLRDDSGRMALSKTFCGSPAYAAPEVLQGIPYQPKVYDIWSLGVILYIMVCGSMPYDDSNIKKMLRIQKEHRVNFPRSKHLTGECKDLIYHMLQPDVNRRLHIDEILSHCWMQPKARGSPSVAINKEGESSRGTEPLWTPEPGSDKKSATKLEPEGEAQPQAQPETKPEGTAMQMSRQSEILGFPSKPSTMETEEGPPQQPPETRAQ

[37] = target: Serine/threonine-protein kinase ULK2 (Homo sapiens) (UniProt Q8IYT8); settings: Compound concentration 1000.0 nM
[38] = target: Tyrosine-protein kinase Yes (Homo sapiens) (UniProt P07947); settings: Compound concentration 1000.0 nM

D(1A) dopamine receptor, sequence (P21728 whole entry): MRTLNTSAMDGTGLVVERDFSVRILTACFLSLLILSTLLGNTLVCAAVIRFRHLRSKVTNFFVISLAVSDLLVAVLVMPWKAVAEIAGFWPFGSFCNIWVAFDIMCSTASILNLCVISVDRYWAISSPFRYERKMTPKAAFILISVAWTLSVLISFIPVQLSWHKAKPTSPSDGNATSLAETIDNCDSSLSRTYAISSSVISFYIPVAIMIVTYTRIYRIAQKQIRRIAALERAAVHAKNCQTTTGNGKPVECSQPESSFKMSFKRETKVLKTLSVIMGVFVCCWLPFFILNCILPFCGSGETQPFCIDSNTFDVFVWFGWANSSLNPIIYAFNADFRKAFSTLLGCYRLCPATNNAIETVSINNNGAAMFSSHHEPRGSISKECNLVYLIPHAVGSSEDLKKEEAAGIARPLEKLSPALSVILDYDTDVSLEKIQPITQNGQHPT
Activin receptor type-1 (Homo sapiens), sequence (Q04771 whole entry, the tested form may be a part): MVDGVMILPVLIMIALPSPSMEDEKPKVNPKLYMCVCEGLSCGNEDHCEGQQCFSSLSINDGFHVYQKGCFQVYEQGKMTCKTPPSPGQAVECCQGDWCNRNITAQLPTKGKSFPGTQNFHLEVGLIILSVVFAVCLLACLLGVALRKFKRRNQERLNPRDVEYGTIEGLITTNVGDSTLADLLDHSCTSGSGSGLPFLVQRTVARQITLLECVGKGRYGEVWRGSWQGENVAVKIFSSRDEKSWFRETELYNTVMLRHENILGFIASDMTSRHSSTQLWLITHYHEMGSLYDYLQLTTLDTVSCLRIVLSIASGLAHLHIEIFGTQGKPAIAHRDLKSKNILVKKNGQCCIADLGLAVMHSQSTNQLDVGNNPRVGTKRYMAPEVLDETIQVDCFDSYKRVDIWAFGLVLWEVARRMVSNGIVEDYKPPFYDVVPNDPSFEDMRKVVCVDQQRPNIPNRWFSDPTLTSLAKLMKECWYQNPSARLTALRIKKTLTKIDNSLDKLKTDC
Cyclin-dependent kinase 4 (Homo sapiens), sequence (P11802 whole entry): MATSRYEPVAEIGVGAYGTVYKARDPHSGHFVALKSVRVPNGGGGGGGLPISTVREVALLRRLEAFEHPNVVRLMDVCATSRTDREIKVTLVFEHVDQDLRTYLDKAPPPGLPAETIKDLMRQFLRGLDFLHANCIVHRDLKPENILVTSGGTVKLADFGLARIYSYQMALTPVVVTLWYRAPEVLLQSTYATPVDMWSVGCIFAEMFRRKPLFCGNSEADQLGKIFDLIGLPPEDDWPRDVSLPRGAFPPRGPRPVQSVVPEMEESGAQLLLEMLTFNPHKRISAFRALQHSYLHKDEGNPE
Serine/threonine-protein kinase ULK2 (Homo sapiens), sequence (Q8IYT8 whole entry): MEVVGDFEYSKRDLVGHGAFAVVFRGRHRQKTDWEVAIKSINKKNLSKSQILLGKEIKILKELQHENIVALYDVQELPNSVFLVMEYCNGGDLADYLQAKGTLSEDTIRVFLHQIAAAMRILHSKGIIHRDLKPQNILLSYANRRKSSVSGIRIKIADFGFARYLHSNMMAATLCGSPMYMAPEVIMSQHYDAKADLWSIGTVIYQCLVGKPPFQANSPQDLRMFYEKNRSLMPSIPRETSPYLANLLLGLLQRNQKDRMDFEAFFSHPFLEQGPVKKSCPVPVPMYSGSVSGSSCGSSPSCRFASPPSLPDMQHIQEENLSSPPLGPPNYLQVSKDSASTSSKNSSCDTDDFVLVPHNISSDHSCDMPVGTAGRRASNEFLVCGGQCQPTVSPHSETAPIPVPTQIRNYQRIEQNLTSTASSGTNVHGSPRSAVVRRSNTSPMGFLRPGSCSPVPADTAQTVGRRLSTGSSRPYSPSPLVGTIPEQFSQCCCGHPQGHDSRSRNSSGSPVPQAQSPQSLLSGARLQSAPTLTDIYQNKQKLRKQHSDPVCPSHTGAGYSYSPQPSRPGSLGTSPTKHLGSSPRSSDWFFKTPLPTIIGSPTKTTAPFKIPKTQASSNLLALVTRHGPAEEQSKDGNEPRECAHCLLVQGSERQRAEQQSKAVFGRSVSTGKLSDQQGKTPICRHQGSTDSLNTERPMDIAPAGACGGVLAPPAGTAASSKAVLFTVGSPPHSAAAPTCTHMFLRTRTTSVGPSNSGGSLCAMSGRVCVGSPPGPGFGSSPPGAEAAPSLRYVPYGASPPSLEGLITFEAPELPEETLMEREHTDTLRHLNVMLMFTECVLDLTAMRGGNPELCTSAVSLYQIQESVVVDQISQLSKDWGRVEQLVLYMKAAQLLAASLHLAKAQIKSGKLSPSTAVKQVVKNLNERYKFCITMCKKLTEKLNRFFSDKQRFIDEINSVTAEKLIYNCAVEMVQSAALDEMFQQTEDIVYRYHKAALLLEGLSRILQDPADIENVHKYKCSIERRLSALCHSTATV
Receptor-type tyrosine-protein kinase FLT3 (Homo sapiens), sequence (P36888 whole entry): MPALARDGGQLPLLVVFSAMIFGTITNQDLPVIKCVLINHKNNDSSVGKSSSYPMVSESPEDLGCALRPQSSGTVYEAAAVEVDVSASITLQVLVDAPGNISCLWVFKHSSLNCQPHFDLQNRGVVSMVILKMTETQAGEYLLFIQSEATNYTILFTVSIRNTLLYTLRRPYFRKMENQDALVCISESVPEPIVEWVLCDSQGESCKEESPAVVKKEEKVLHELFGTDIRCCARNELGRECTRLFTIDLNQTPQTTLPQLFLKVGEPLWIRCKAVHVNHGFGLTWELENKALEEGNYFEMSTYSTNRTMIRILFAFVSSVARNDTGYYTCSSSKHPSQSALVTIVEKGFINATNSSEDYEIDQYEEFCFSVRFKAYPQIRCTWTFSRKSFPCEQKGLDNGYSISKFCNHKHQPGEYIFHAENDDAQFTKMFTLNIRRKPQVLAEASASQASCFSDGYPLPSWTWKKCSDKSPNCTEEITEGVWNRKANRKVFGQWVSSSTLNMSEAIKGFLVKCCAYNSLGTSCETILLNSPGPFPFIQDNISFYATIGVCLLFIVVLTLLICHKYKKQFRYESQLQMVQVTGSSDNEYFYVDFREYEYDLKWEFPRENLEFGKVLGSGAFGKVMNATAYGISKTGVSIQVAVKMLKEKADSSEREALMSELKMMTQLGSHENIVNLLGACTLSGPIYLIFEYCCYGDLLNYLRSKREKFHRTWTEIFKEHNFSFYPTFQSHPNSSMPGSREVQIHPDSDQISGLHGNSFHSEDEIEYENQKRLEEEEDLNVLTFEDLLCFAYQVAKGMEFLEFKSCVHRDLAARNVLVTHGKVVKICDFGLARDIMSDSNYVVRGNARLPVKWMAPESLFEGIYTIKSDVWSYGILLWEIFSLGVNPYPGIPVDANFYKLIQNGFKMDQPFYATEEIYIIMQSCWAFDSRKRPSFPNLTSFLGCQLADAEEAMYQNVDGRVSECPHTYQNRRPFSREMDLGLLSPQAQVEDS
Ankyrin repeat and protein kinase domain-containing protein 1 (Homo sapiens), sequence (Q8NFD2 whole entry, the tested form may be a part): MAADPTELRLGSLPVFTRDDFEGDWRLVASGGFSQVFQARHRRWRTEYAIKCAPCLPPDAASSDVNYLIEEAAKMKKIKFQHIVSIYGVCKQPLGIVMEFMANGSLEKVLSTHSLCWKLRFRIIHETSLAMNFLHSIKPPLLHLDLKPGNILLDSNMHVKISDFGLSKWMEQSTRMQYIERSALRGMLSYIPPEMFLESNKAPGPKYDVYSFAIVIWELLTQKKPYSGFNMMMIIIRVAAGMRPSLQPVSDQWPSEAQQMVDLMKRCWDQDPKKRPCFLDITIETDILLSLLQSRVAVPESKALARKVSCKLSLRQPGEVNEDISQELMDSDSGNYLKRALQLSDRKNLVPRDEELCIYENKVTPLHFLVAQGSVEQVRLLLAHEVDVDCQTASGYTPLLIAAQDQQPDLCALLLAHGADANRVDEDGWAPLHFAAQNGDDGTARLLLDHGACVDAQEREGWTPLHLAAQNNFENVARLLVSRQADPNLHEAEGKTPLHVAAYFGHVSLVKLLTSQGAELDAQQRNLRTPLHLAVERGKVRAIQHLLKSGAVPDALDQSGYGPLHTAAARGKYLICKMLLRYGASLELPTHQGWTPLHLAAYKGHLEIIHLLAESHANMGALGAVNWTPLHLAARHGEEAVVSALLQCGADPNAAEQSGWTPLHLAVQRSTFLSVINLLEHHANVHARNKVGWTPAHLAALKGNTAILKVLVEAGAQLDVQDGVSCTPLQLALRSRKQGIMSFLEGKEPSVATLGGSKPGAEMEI
Mast/stem cell growth factor receptor Kit (Homo sapiens), P10721 [V559D,T670I], sequence (P10721 whole entry V559D/T670I): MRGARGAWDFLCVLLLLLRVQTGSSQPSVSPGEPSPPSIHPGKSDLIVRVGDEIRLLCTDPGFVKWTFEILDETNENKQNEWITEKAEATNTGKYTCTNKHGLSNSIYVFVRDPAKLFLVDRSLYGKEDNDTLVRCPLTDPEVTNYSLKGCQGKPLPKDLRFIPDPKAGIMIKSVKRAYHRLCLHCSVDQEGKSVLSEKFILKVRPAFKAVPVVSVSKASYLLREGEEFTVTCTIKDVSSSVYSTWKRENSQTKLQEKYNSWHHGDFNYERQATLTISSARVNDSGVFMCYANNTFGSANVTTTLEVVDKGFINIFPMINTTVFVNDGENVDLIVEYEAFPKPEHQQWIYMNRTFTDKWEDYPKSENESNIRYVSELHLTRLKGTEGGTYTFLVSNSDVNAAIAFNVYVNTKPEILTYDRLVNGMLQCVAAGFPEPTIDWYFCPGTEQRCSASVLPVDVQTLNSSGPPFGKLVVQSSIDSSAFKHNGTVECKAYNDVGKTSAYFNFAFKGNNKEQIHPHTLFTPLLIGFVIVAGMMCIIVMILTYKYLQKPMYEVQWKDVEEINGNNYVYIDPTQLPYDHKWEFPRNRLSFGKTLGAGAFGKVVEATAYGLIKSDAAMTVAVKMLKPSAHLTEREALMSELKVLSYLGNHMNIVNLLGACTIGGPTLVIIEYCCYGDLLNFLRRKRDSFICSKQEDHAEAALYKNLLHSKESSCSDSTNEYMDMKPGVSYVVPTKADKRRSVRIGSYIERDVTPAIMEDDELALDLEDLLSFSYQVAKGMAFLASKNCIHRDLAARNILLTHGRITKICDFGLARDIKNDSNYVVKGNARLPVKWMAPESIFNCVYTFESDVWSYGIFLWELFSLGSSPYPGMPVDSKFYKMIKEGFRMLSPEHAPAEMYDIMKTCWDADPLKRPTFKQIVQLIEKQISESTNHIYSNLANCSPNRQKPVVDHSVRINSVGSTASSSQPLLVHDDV

| SMILES | Ki (D(1A) dopamine receptor; read-out: Ki) | residual activity [1] | residual activity [2] | residual activity [3] | residual activity [4] | residual activity [5] | residual activity [6] | residual activity [7] | residual activity [8] | residual activity [9] | residual activity [10] | residual activity [11] | residual activity [12] | residual activity [13] | residual activity [14] | residual activity [15] | residual activity [16] | residual activity [17] | residual activity [18] | residual activity [19] | further results |
| --- | --- | --- | --- | --- | --- | --- | --- | --- | --- | --- | --- | --- | --- | --- | --- | --- | --- | --- | --- | --- | --- |
| CNCc1ccccc1-c1csc([C@@H](C)Nc2nc(C)nc3cc(OC)c(OC)cc23)c1 [BAY-293] | 1270 nM | 86% | 100% | 76% | 77% | 93% | 87% | 90% | 99% | 94% | 100% | 99% | 92% | 97% | 83% | 100% | 80% | 97% | 76% | 63% | residual activity [20]: 96%; residual activity [21]: 100%; residual activity [22]: 86%; residual activity [23]: 96%; residual activity [24]: 84%; residual activity [25]: 86%; residual activity [26]: 80%; residual activity [27]: 85%; residual activity [28]: 100%; residual activity [29]: 91%; residual activity [30]: 84%; residual activity [31]: 100%; residual activity [32]: 100%; residual activity [33]: 86%; residual activity [34]: 100%; residual activity [35]: 100%; residual activity [36]: 59%; residual activity [37]: 100%; residual activity [38]: 100% |
| CNCc1ccccc1-c1csc([C@H](C)Nc2nc(C)nc3cc(OC)c(OC)cc23)c1 [BAY-294] | 718 nM | 97% | 100% | 90% | 99% | 100% | 89% | 96% | 100% | 87% | 100% | 91% | 94% | 100% | 100% | 89% | 100% | 98% | 96% | 71% | Ki (D(1A) dopamine receptor; read-out: pKi (converted)): 562 nM; residual activity [20]: 100%; residual activity [21]: 100%; residual activity [22]: 94%; residual activity [23]: 100%; residual activity [24]: 92%; residual activity [25]: 100%; residual activity [26]: 88%; residual activity [27]: 93%; residual activity [28]: 96%; residual activity [29]: 93%; residual activity [30]: 100%; residual activity [31]: 100%; residual activity [32]: 100%; residual activity [33]: 83%; residual activity [34]: 100%; residual activity [35]: 100%; residual activity [36]: 93%; residual activity [37]: 100%; residual activity [38]: 100% |
